Drawing on patent US10221129B2, “Inhibitors of human immunodeficiency virus replication” (ViiV HEALTHCARE UK (NO.5) LIMITED, priority 2015, dated 2019), this text covers EC50 and CC50 for 32 compounds.

Where two headings read alike, the source gives them in different places.

What all share (type): cell-based
The subject of data set [1] is recombinant NL4-3 virus (nef section replaced with Renilla luciferase gene) in MT-2 cells. Put plainly: HIV cell culture assay (antiviral activity, luciferase readout). The method, boiled down:
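Serial compound dilutions tested in MT-2 cells infected for 4-5 days with 293T-derived NL4-3 virus carrying Renilla luciferase in place of part of nef. Antiviral activity quantified as luciferase activity, read with a live-cell substrate.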

The test system of the next data set is uninfected MT2 cells. Kind of data set: Compound cytotoxicity, XTT-based colorimetric assay. Particulars: day 4, XTT. The method, boiled down:
(§1)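 Run under the antiviral-assay protocol but without virus. Viability was read on day 4 and CC50 values were derived from the readout.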

Test in data set [2]: as above
The following applies: human, uninfected MT2 cells, day 4, XTT. The method, boiled down: as §1

[3] abbreviates: MT-2 cells infected for 4-5 days with recombinant NL4-3 Renilla luciferase virus.
[4] abbreviates: Renilla, NL43, MT-2 cells infected for 4-5 days with recombinant NL4-3 Renilla luciferase virus.
The mark [5] stands for this setting: MT-2 cells infected for 4-5 days with recombinant NL4-3 Renilla luciferase virus, read-out: EC50.

Consider `CN(C)C(=O)C1Cc2cccnc2N1S(=O)(=O)NC(=O)N[C@@H](Cc1cc(F)cc(F)c1)C(=O)N(C)c1ccc2scnc2c1` (single isomer, unassigned) [BB-29], for which the EC50 in data set [1] (setting [3]) amounted to 2430 nM. In the data set with uninfected MT2 cells, the CC50 is greater than 100000 nM.
With `CC1CCc2ccccc2N1S(=O)(=O)NC(=O)N[C@@H](Cc1cc(F)cc(F)c1)C(=O)N(C)c1ccc2scnc2c1` (single isomer, unassigned) [VN-11], the EC50 in data set [1] (setting [3]) stood at 90 nM. For the same compound, the CC50 in the data set with uninfected MT2 cells was found to be 93500 nM.
As for `CC1CN(S(=O)(=O)NC(=O)N[C@@H](Cc2cc(F)cc(F)c2)C(=O)N(C)c2ccc3scnc3c2)c2ncccc21` (single isomer, unassigned) [VN-15], in data set [1] (setting [4]), the EC50 was 30 nM. The same compound registered a CC50 in the data set with uninfected MT2 cells greater than 100000 nM.
For `CN(C(=O)[C@H](Cc1cc(F)cc(F)c1)NC(=O)NS(=O)(=O)N1CCc2cncnc21)c1ccc2scnc2c1` [VN-19], the EC50 in data set [1] (setting [5]) came to 680 nM. The compound further came in with a CC50 with uninfected MT2 cells of 70500 nM.
Consider `COc1ccc(N(C)C(=O)[C@H](Cc2ccccc2)NC(=O)NS(=O)(=O)NCc2n[nH]c3ccccc23)cc1` [JB-66], for which the EC50 in data set [1] (setting [5]) amounted to 1180 nM. The compound further had a CC50 in the data set on uninfected MT2 cells greater than 100000 nM.
Regarding `CC1CCc2ccccc2N1S(=O)(=O)NC(=O)N[C@@H](Cc1cc(F)cc(F)c1)C(=O)N(C)c1ccc2scnc2c1` (single isomer, unassigned) [VN-10], in data set [1] (setting [4]), the EC50 amounted to 100 nM. Also, the CC50 in the data set on uninfected MT2 cells is greater than 33300 nM.
With `CC1Cc2cccnc2N1S(=O)(=O)NC(=O)N[C@@H](Cc1cc(F)cc(F)c1)C(=O)N(C)c1ccc2scnc2c1` (single isomer, unassigned) [VN-7], the EC50 in data set [1] (setting [3]) was 50 nM. In the data set on uninfected MT2 cells, this compound returned a CC50 greater than 1000 nM.
With `CN(C(=O)[C@H](Cc1cc(F)cc(F)c1)NC(=O)NS(=O)(=O)N1CCCC1c1ccccn1)c1ccc2scnc2c1` (single isomer, unassigned) [VN-2], the EC50 in data set [1] (setting [3]) amounted to 610 nM. Also, the CC50 with uninfected MT2 cells is greater than 100000 nM.
The corresponding values for `CN(C(=O)[C@H](Cc1cc(F)cc(F)c1)NC(=O)NS(=O)(=O)N1CCCC1c1ccccc1)c1ccc2scnc2c1` (single isomer, unassigned) [VN-4] are 190 nM and 57500 nM.
For the compound `CN(C(=O)[C@H](Cc1cc(F)cc(F)c1)NC(=O)NS(=O)(=O)N1CCc2cccnc21)c1ccc2scnc2c1` [ZY-1], the EC50 in data set [1] (setting [4]) was 10 nM. Further, in data set [2], the CC50 at 4 days was greater than 100000 nM.
As to `CN(C(=O)[C@H](Cc1cc(F)cc(F)c1)NC(=O)NS(=O)(=O)N(C)c1ccccc1F)c1ccc2scnc2c1` [CA-117], the EC50 in data set [1] (setting [4]) is 120 nM. This compound showed a CC50 at 4 days in data set [2] greater than 100000 nM.
For `CCc1ccc(N(C)C(=O)[C@H](Cc2cc(F)cc(F)c2)NC(=O)NS(=O)(=O)N2CCc3cccnc32)cc1` [BB-2], the EC50 in data set [1] (setting [4]) came out at 20 nM. Further, it took 96000 nM to reach half-maximal cytotoxicity in data set [2] (CC50 at 4 days).
With `COc1ccc(N(C)C(=O)[C@H](Cc2ccccc2)NC(=O)NS(=O)(=O)Nc2nccc3ccccc23)cc1` [JB-32], in data set [1] (setting [4]), the EC50 was determined as 1450 nM. This compound came in with a CC50 at 4 days in data set [2] greater than 100000 nM.
With `Cc1ccc(N(C)C(=O)[C@H](Cc2cc(F)cc(F)c2)NC(=O)NS(=O)(=O)N2CCc3cccnc32)nc1` [GW-4], in data set [1] (setting [4]), the EC50 came to 220 nM. Moreover, the CC50 at 4 days in data set [2] is greater than 100000 nM.
`COc1ccc(N(C)C(=O)[C@H](Cc2ccccc2)NC(=O)NS(=O)(=O)n2ncc3c(Cl)nc(Cl)cc32)cc1` [CA-66]: the EC50 in data set [1] (setting [4]) is 14600 nM. Further, in data set [2], the CC50 at 4 days was greater than 100000 nM.
`COc1ccc(N(C)C(=O)[C@H](Cc2ccccc2)NC(=O)NS(=O)(=O)n2ccc3cnccc32)cc1` [JB-80]: the EC50 in data set [1] (setting [4]) stood at 360 nM. Further, the CC50 at 4 day in data set [2] was greater than 100000 nM.
For `COc1ccc(N(C)C(=O)[C@H](Cc2ccccc2)NC(=O)NS(=O)(=O)Nc2cccc(S(=O)(=O)N3CCOCC3)c2)cc1` [CA-47], in data set [1] (setting [4]), the EC50 was determined as 2140 nM. This compound also yielded a CC50 at 4 days in data set [2] greater than 100000 nM.
For `COc1ccc(N(C)C(=O)[C@H](Cc2ccccc2)NC(=O)NS(=O)(=O)Nc2cccc(-c3cnco3)c2)cc1` [CA-27], in data set [1] (setting [4]), the EC50 stood at 310 nM. Besides, in data set [2], the CC50 at 4 days was greater than 100000 nM.
For the compound `Cc1cc(N(C)C(=O)[C@H](Cc2cc(F)cc(F)c2)NC(=O)NS(=O)(=O)N2CCc3cccnc32)ccc1C#N` [BB-15], in data set [1] (setting [4]), the EC50 was 460 nM. For the same compound, the CC50 at 4 days in data set [2] is greater than 100000 nM.
The like results for `COc1ccc(N(C)C(=O)[C@H](Cc2ccccc2)NC(=O)NS(=O)(=O)Nc2ccc3ncsc3c2)cc1` [CA-24] were, in that order, 60 nM and greater than 100000 nM.
For `COc1ccc(N(C)C(=O)[C@H](Cc2ccccc2)NC(=O)NS(=O)(=O)N(C)C)cc1` [JB-15], the EC50 in data set [1] (setting [4]) is 1920 nM. Besides, the CC50 at 4 days in data set [2] is greater than 100000 nM.
`COc1ccc(N(C)C(=O)[C@H](Cc2ccccc2)NC(=O)NS(=O)(=O)n2c(C)cc3ccncc32)cc1` [CA-62]: the EC50 in data set [1] (setting [4]) was 3690 nM. Also, in data set [2], the half-maximal cytotoxic concentration (CC50) at 4 days is greater than 100000 nM.
In the case of `Cc1cc(N(C)C(=O)[C@H](Cc2cc(F)cc(F)c2)NC(=O)NS(=O)(=O)N2CCc3cccnc32)ccc1Cl` [BB-16], the EC50 in data set [1] (setting [4]) was 30 nM. For the same compound, the midpoint of cytotoxicity in data set [2], the CC50 at 4 days, lay at 56300 nM.
Turning to `CCCN(C)S(=O)(=O)NC(=O)N[C@@H](Cc1cc(F)cc(F)c1)C(=O)N(C)c1ccc2scnc2c1` [CA-141], in data set [1] (setting [4]), the EC50 was 40 nM. Moreover, the CC50 at 4 days in data set [2] is greater than 100000 nM.
Take `CCc1ccc(N(C)C(=O)[C@H](Cc2cc(F)cc(F)c2)NC(=O)NS(=O)(=O)N(C)C)cn1` [GW-17]: in data set [1] (setting [4]), the EC50 came to 100 nM. Further, in data set [2], the CC50 at 4 days is greater than 100000 nM.
Regarding `COc1ccc(N(C)C(=O)[C@H](Cc2ccccc2)NC(=O)NS(=O)(=O)n2nc(-c3ccccc3)c3ccccc32)cc1` [CA-63], the EC50 in data set [1] (setting [4]) was found to be 30200 nM. In data set [2], it took 73700 nM to reach half-maximal cytotoxicity (CC50 at 4 days).
For the compound `COCCN(C)S(=O)(=O)NC(=O)N[C@@H](Cc1cc(F)cc(F)c1)C(=O)N(C)c1ccc2scnc2c1` [CA-149], the 50% effective concentration (EC50) in data set [1] (setting [4]) was 80 nM. In data set [2], this compound returned a CC50 at 4 days greater than 100000 nM.
On to `COc1ccc(N(C)C(=O)[C@H](Cc2ccccc2)NC(=O)NS(=O)(=O)N2CCc3cc(Cl)cc(Cl)c32)cc1` [CA-3], for which, in data set [1] (setting [4]), the EC50 amounted to 5720 nM. Also, the CC50 at 4 days in data set [2] was greater than 100000 nM.
For `CCN(c1ccccc1)S(=O)(=O)NC(=O)N[C@@H](Cc1cc(F)cc(F)c1)C(=O)N(C)c1ccc2scnc2c1` [ZY-9], the EC50 in data set [1] (setting [4]) turned out to be 180 nM. In data set [2], this compound yielded a CC50 at 4 days greater than 100000 nM.
The like results for `CN(C(=O)[C@H](Cc1ccccc1)NC(=O)NS(=O)(=O)Nc1ccccc1Cl)c1ccc2ncccc2c1` [JB-10] were, in that order, 50 nM and greater than 100000 nM.
The like results for `COc1ccc(N(C)C(=O)[C@H](Cc2ccccc2)NC(=O)NS(=O)(=O)N2CCc3cccnc32)cc1` [JB-31] were, in that order, 140 nM and greater than 100000 nM.
For the compound `CN(C(=O)[C@H](Cc1cc(F)cc(F)c1)NC(=O)NS(=O)(=O)n1ccc2cncnc21)c1ccc2scnc2c1` [VN-20], the EC50 in data set [1] (setting [5]) was 940 nM. For the same compound, the CC50 with uninfected MT2 cells was greater than 100000 nM.
